Results from patent US20210137960A1, “COMPOSITIONS AND METHODS FOR INHIBITION OF NUCLEAR-PENETRATING ANTIBODIES” (Yale University, priority 2018, published 2021).
Where two headings read alike, the source gives them in different places.

Tests used:
DLD1 colon cancer cells = assay: Protein L immunodetection of variant 13 nuclear penetration with importin pathway inhibitors, DLD1; type: cell-based; settings: 10 μM variant 13 co-incubated with 0, 10, 25, or 50 μM inhibitor
Method: (§1) For all experiments, cells were cultivated overnight to allow for attachment, followed by pretreatment with either control medium (absence of inhibitor), or medium containing inhibitor for durations previously-reported in the literature (see Table 5, below).
(§2) For endocytosis inhibition experiments, cells were cultivated in serum-free medium containing 1% v/v BSA to deplete endogenous serum levels. Following preincubation with inhibitors, cells were treated with either control medium or 10 μM variant 13, and the same dose of small molecule inhibitor for a further 30 minutes. For all experiments, cells were washed thrice, followed by immediate fixation with pre-chilled ice-cold ethanol. Subsequently, treated cells were probed using a protein L immunodetection approach to probe variant 13 nuclear uptake (Rattray et al., Biochem Biophys Res Commun 496, 858-864 (2018)). All monolayers were immediately imaged following color development on an Evos Fl microscope.
(§3) DLD-1 and A549 cells were treated with 10 μM variant 13 co-incubated with 0, 10, 25, or 50 μM concentrations of ivermectin. Relative intensity of protein L nuclear staining as compared to amount of stain in cells treated without ivermectin was also quantified by ImageJ.
(§4) DLD-1 cells and A549 cells were treated with 10 μM variant 13 co-incubated with 0, 10, 25, or 50 μM concentrations of importazole and then immunostained for protein L.
(§5) DLD-1 cells and A549 cells were treated with 10 μM variant 13 co-incubated with 0, 10, 25, or 50 μM concentrations of mifepristone and then immunostained for protein L.

A549 lung cancer cells = assay: Protein L immunodetection of variant 13 nuclear penetration with importin pathway inhibitors, A549; type: cell-based; settings: 10 μM variant 13 co-incubated with 0, 10, 25, or 50 μM inhibitor
Method: as §1, §2, §3, §4, §5

MCF7 breast cancer cells = assay: Uptake of rhodamine-labeled variant 13 in live cells, light and fluorescence microscopy, MCF7; type: cell-based; settings: 50 μM ivermectin
Method: Live MCF7 breast cancer cells were treated with control or rhodamine-labeled variant 13 (Rh-variant 13)+/−50 μM ivermectin and were then visualized under light and fluorescence microscopy.

DLD1 cells [1] = assay: SLE sera nuclear import with nuclear import inhibitors, anti-human IgG immunostain; type: cell-based; settings: for effect on nuclear uptake of ANAs in SLE-19: SLE-19 serum
Method: DLD1 cells were pre-treated with either control media, or media containing nuclear import inhibitors for four hours. Subsequent co-treatment with inhibitor and patient SLE serum (diluted 1:50) was performed for one hour at 37° C. Following treatment, cells were fixed, blocked and probed with an alkaline-phosphatase anti-human IgG […] antibody overnight (Fisher Scientific). Cell monolayers were washed, and color developed using NBT/BCIP reagent (Fisher Scientific) for the same duration across all experiments. Following chromogen color development, all monolayers were washed, and brightfield images acquired immediately on an Evos F microscope.

DLD1 cells [2] = assay: Nuclear penetration of scleroderma autoantibody SSC and effect of ivermectin, microscopic analysis; type: cell-based
Source text: In addition to SLE, cell-penetrating autoantibodies are detected in other autoimmune diseases such as scleroderma. […] SSC was expressed in and purified from HEK293T cells.

DLD1 cancer cells = assay: Uptake of rhodamine-labeled variant 13 in live cells, light and fluorescence microscopy, DLD1; type: cell-based; settings: 50 μM importazole
Method: Live DLD1 cancer cells were treated with control or rhodamine-labeled variant 13 (Rh-variant 13)+/−50 μM importazole and were then visualized under light and fluorescence microscopy.

cell nuclei [3] = assay: Nuclear penetration of humanized 3E10 variants compared with original 3E10 (D31N) di-scFv; type: cell-based; settings: for Nuclear localizing?: humanized 3E10 variants; for nuclear penetration compared to the prototype: vs original 3E10 (D31N) di-scFv
Source text: A range of humanized 3E10 variants were generated with subtle differences in framework and CDR sequences.

cell nuclei [4] = settings: known anti-dsDNA autoantibodies; cited from earlier work

Which “effect on nuclear penetration by variant 13” value (DLD1 colon cancer cells) does the source give for “22,23-dihydroavermectin B1a/B1b [ivermectin]” here?
The value was “dose-dependent reduction in nuclear penetration”.

What about the “effect on nuclear penetration by variant 13” value (A549 lung cancer cells) of the same molecule?
Its value is “dose-dependent reduction in nuclear penetration”.

And the “effect on cellular/nuclear uptake of rhodamine-labeled variant 13” value (MCF7 breast cancer cells)?
The value was “inhibited cellular/nuclear uptake”.

What about the “effect on nuclear staining by ANAs in SLE sera” value (DLD1 cells [1]; SLE-4, 8, 9, and 19 serum diluted 1:50, pre- and co-treatment) of the same molecule?
Its value is “reduced the nuclear staining associated with each sample”.

And the “effect on nuclear uptake of SSC” value (DLD1 cells [2])?
Its value is “inhibited the nuclear uptake of SSC”.

What does the source list for `CC(Nc1nc(N2CCCC2)nc2ccccc12)c1ccccc1` (centres unmarked) [importazole, N-(1-phenylethyl)-2-pyrrolidin-1-ylquinazolin-4-amine]?
effect on nuclear penetration by variant 13 (DLD1 colon cancer cells): reduction in nuclear penetration; effect on nuclear penetration by variant 13 (A549 lung cancer cells): reduction in nuclear penetration; effect on nuclear uptake of rhodamine-labeled variant 13 (DLD1 cancer cells): inhibited nuclear uptake; effect on nuclear uptake of ANAs in SLE-19 (DLD1 cells [1]): inhibit nuclear uptake of ANAs in SLE-19 in a dose-dependent manner

What does the source list for `CC#C[C@]1(O)CC[C@H]2[C@@H]3CCC4=CC(=O)CCC4=C3[C@@H](c3ccc(N(C)C)cc3)C[C@@]21C` [mifepristone, 11β-(4-Dimethylamino)phenyl-170-hydroxy-17-(1-propynyl)-estra-4,9-dien-3-one]?
effect on nuclear penetration by variant 13 (DLD1 colon cancer cells): reduction in nuclear penetration; effect on nuclear penetration by variant 13 (A549 lung cancer cells): reduction in nuclear penetration; effect on nuclear uptake of ANAs in SLE-19 (DLD1 cells [1]): inhibit nuclear uptake of ANAs in SLE-19 in a dose-dependent manner

B1: variant 10: humanized 3E10 variant, SEQ ID NOS:14, 22, and 32 (protein)
chain 1: EVQLVESGGGLVQPGGSLRLSCAASGFTFSNYGMHWVRQAPGKGLEWVSYISSSSSTIYYADSVKGRFTISRDNAKNSLYLQMNSLRAEDTAVYYCARRGLLLDYWGQGTTVTVSS
chain 2: DIQMTQSPSSLSASVGDRVTITCRASKSVSTSSYSYMHWYQQKPGKAPKLLIKYASYLESGVPSRFSGSGSGTDFTLTISSLQPEDFATYYCQHSREFPWTFGQGTKVEIK
chain 3: DIQMTQSPSSLSASVGDRVTITCRASKSVSTSSYSYMHWYQQKPGKAPKLLIKYASYLESGVPSRFSGSGSGTDFTLTISSLQPEDFATYYCQHSREFPWTFGQGTKVEIKRADAAPGGGGSGGGGSGGGGSEVQLVESGGGLVQPGGSLRLSCAASGFTFSNYGMHWVRQAPGKGLEWVSYISSSSSTIYYADSVKGRFTISRDNAKNSLYLQMNSLRAEDTAVYYCARRGLLLDYWGQGTTVTVSSASTKGPSVFPLAPLESSGSDIQMTQSPSSLSASVGDRVTITCRASKSVSTSSYSYMHWYQQKPGKAPKLLIKYASYLESGVPSRFSGSGSGTDFTLTISSLQPEDFATYYCQHSREFPWTFGQGTKVEIKRADAAPGGGGSGGGGSGGGGSEVQLVESGGGLVQPGGSLRLSCAASGFTFSNYGMHWVRQAPGKGLEWVSYISSSSSTIYYADSVKGRFTISRDNAKNSLYLQMNSLRAEDTAVYYCARRGLLLDYWGQGTTVTVSS
For B1, which “Nuclear localizing?” value (cell nuclei [3]) is on record?
The value was “Yes”.

And the “nuclear penetration compared to the prototype” value (cell nuclei [3])?
The value was “penetrated nuclei very well”.

B2: variant 13: humanized 3E10 variant, SEQ ID NOS:17, 23, and 35, expressed in a CHO cell system (protein)
chain 1: EVQLVESGGGLVQPGGSLRLSCAASGFTFSNYGMHWVRQAPGKGLEWVSYISSGSSTIYYADSVKGRFTISRDNAKNSLYLQMNSLRAEDTAVYYCARRGLLLDYWGQGTTVTVSS
chain 2: DIQMTQSPSSLSASLGDRATITCRASKTVSTSSYSYMHWYQQKPGQPPKLLIKYASYLESGVPSRFSGSGSGTDFTLTISSLQPEDAATYYCQHSREFPWTFGGGTKVEIK
chain 3: DIQMTQSPSSLSASLGDRATITCRASKTVSTSSYSYMHWYQQKPGQPPKLLIKYASYLESGVPSRFSGSGSGTDFTLTISSLQPEDAATYYCQHSREFPWTFGGGTKVEIKRADAAPGGGGSGGGGSGGGGSEVQLVESGGGLVQPGGSLRLSCAASGFTFSNYGMHWVRQAPGKGLEWVSYISSGSSTIYYADSVKGRFTISRDNAKNSLYLQMNSLRAEDTAVYYCARRGLLLDYWGQGTTVTVSSASTKGPSVFPLAPLESSGSDIQMTQSPSSLSASLGDRATITCRASKTVSTSSYSYMHWYQQKPGQPPKLLIKYASYLESGVPSRFSGSGSGTDFTLTISSLQPEDAATYYCQHSREFPWTFGGGTKVEIKRADAAPGGGGSGGGGSGGGGSEVQLVESGGGLVQPGGSLRLSCAASGFTFSNYGMHWVRQAPGKGLEWVSYISSGSSTIYYADSVKGRFTISRDNAKNSLYLQMNSLRAEDTAVYYCARRGLLLDYWGQGTTVTVSS
For B2, which “Nuclear localizing?” value (cell nuclei [3]) is on record?
Its value is “Yes”.

And the “nuclear penetration compared to the prototype” value (cell nuclei [3])?
Its value is “penetrated nuclei very well”.

B3: 5C6: monoclonal anti-DNA antibody with nucleolytic activity from MRL/lpr lupus mouse model hybridoma (antibody, listed as Mus musculus, V domains shown)
VL: DIVLTQSPASLAAVSLGERATISYRASKSVSTSGYSYMHWNQQKPGQAPRLLIYLVSNLESGVPARFSGSGSGTDFTLNIHPVEEEDAATYYCQHIRELDTFFGGGTKLEIK
VH: QLKLVESGGGLVKPGGSLKLSCAASGFTFSSYTMSWVRQTPAKRLEWVATISSGGGSTYYPDSVKGRFTISRDNARNTLYLQMSSLRSEDTAMYYCARRAYSKRGAMDYWGQGTSVTVSS
With B3 as the molecule, how does the “Nuclear localizing?” value (cell nuclei [4]) read?
The value was “Yes”.
